Like-named read-outs stand apart in the source and are kept apart here.
Legend:
Ramos cells = test: Cytotoxicity in Ramos cells; type: cell-based; details: cytotoxicity in Ramos cells, read-out: Ramos Cell EC50
F1F0-ATPase = target: T1, F1F0-ATPase (Bos taurus, UniProt P13621); test: Inhibition of F1F0-ATPase activity in synthesizing ATP; type: biochemical; details: inhibition of ATP synthesis by F1F0-ATPase; read-out: ATP Syn IC50
T1 construct: from tissue

Row | SMILES | EC50 (Ramos cells) | IC50 (F1F0-ATPase) | EC50 (Ramos cells; Homo sapiens)
1 | CC(C)(C)N/C(=N/C(=O)c1ccc(F)cc1)Nc1cc(-c2ccc(F)cc2)n[nH]1 [Compound A-459] | < 10 µM | < 10 µM | 
2 | O=C(N=C(NCc1ccc(F)cc1Cl)Nc1cc(-c2ccc(F)cc2)n[nH]1)c1ccc(F)cc1 [Compound A-460] |  | < 10 µM | < 10 µM
3 | O=C(N=C(Nc1cc(F)cc(Cl)c1)Nc1cc(-c2ccc(F)cc2)n[nH]1)c1ccc(F)cc1 [Compound A-461] |  | < 10 µM | < 10 µM
4 | COc1ccc(-c2cc(NC(=NC(=O)c3ccc(Cl)c(F)c3)NC3CCOCC3)n[nH]2)cc1 [Compound A-462] |  | > 10 µM | > 10 µM
5 | O=C(/N=C(\Nc1cc(-c2cccc(Cl)c2)n[nH]1)NC1CCOCC1)c1ccc(Cl)c(F)c1 [Compound A-463] | > 10 µM | < 10 µM | 
6 | O=C(/N=C(\Nc1cc(-c2ccc(Cl)cc2)n[nH]1)NC1CCOCC1)c1ccc(Cl)c(F)c1 [Compound A-464] | > 10 µM | > 10 µM | 
7 | O=C(N=C(Nc1cc(-c2ccc(F)cc2)n[nH]1)NC1CCOCC1)c1ccc(C(F)(F)F)cc1 [Compound A-465] |  | > 10 µM | > 10 µM
8 | O=C(N=C(Nc1cc(-c2ccccc2)[nH]n1)NC1CCOCC1)c1ccc(C(F)(F)F)cc1 [Compound A-466] |  | > 10 µM | > 10 µM
9 | COc1ccc(-c2cc(N/C(=N\C(=O)c3ccc(Cl)c(F)c3)NC(C)(C)C)[nH]n2)cc1 [Compound A-467] | < 10 µM | < 10 µM | 
10 | CC(C)(C)NC(=NC(=O)c1ccc(Cl)c(F)c1)Nc1cc(-c2cccc(Cl)c2)[nH]n1 [Compound A-468] |  | < 10 µM | < 10 µM
11 | CC(C)(C)NC(=NC(=O)c1ccc(Cl)c(F)c1)Nc1cc(-c2ccc(Cl)cc2)n[nH]1 [Compound A-469] |  | < 10 µM | < 10 µM
12 | Cc1ccc(-c2cc(NC(=NC(=O)c3ccc(Cl)c(F)c3)NC(C)(C)C)[nH]n2)cc1 [Compound A-470] |  | < 10 µM | > 10 µM
13 | COc1ccc(-c2cc(N/C(=N\C(=O)c3ccc(Cl)c(F)c3)NCc3ccc(F)cc3Cl)[nH]n2)cc1 [Compound A-471] | > 10 µM | < 10 µM | 
14 | O=C(/N=C(/NCc1ccc(F)cc1Cl)Nc1cc(-c2cccc(Cl)c2)n[nH]1)c1ccc(Cl)c(F)c1 [Compound A-472] | > 10 µM | < 10 µM | 
15 | O=C(N=C(NCc1ccc(F)cc1Cl)Nc1cc(-c2ccc(Cl)cc2)n[nH]1)c1ccc(Cl)c(F)c1 [Compound A-473] |  | < 10 µM | > 10 µM
16 | Cc1ccc(-c2cc(NC(=NC(=O)c3ccc(Cl)c(F)c3)NCc3ccc(F)cc3Cl)[nH]n2)cc1 [Compound A-474] |  | < 10 µM | > 10 µM
17 | O=C(N=C(Nc1cc(F)cc(Cl)c1)Nc1cc(-c2cccc(Cl)c2)[nH]n1)c1ccc(Cl)c(F)c1 [Compound A-475] |  | < 10 µM | > 10 µM
18 | COc1ccc(-c2cc(N/C(=N\C(=O)c3ccc(F)c(F)c3)NCc3ccc(F)cc3Cl)[nH]n2)cc1 [Compound A-476] | > 10 µM | < 10 µM | 
19 | O=C(/N=C(/NCc1ccc(F)cc1Cl)Nc1cc(-c2cccc(Cl)c2)n[nH]1)c1ccc(F)c(F)c1 [Compound A-477] | > 10 µM | < 10 µM | 
20 | O=C(/N=C(/NCc1ccc(F)cc1Cl)Nc1cc(-c2ccc(Cl)cc2)n[nH]1)c1ccc(F)c(F)c1 [Compound A-478] | < 10 µM | < 10 µM | 
21 | Cc1ccc(-c2cc(N/C(=N\C(=O)c3ccc(F)c(F)c3)NCc3ccc(F)cc3Cl)[nH]n2)cc1 [Compound A-479] | < 10 µM | < 10 µM | 
22 | COc1ccc(-c2cc(N/C(=N\C(=O)c3ccc(F)c(F)c3)Nc3cc(F)cc(Cl)c3)[nH]n2)cc1 [Compound A-480] | > 10 µM | < 10 µM | 
23 | COc1ccc(-c2cc(N/C(=N\C(=O)c3ccc(C(F)(F)F)cc3)Nc3cc(F)cc(Cl)c3)[nH]n2)cc1 [Compound A-481] | > 10 µM | < 10 µM | 
24 | O=C(/N=C(/Nc1cc(F)cc(Cl)c1)Nc1cc(-c2ccccc2)n[nH]1)c1ccc(Cl)c(F)c1 [Compound A-482] | < 10 µM | < 10 µM | 
25 | O=C(/N=C(/NCc1ccc(F)cc1Cl)Nc1cc(-c2ccccc2)n[nH]1)c1ccc(F)c(F)c1 [Compound A-483] | > 10 µM | < 10 µM | 
26 | COCC(C)NC(=NC(=O)c1ccnc(N2CCCC2)c1)Nc1cc(-c2ccc(F)cc2)[nH]n1 (centres unmarked) [Compound A-484] |  | < 10 µM | < 10 µM

Row | SMILES | EC50 (Ramos cells) | IC50 (F1F0-ATPase) | EC50 (Ramos cells; Homo sapiens)
27 | CC(=O)Nc1cc(C(=O)N=C(Nc2cc(-c3ccc(F)cc3)[nH]n2)NC(C)(C)C)ccn1 [Compound A-485] |  | > 10 µM | > 10 µM
28 | CC(C)(C)NC(=NC(=O)c1ccnc(N)c1)Nc1cc(-c2ccc(F)cc2)[nH]n1 [Compound A-486] |  | < 10 µM | < 10 µM
29 | CC(C)(C)N/C(=N/C(=O)c1ccnc(N2CCCC2)c1)Nc1cc(-c2ccc(F)cc2)n[nH]1 [Compound A-487] | < 10 µM | < 10 µM | 
30 | COC[C@H](C)N/C(=N/C(=O)c1ccc(F)cc1F)Nc1cc(-c2ccc(F)cc2)n[nH]1 [Compound A-488] | < 10 µM | < 10 µM | 
31 | CC(C)(C)N/C(=N/C(=O)c1ccc(F)cc1F)Nc1cc(-c2ccc(F)cc2)n[nH]1 [Compound A-489] | < 10 µM | < 10 µM | 
32 | CC(CC#N)NC(=NC(=O)c1ccc(F)cc1)Nc1cc(-c2ccc(F)cc2)n[nH]1 (centres unmarked) [Compound A-490] |  | < 10 µM | < 10 µM
33 | COC[C@H](C)NC(=NC(=O)c1cccc(S(C)(=O)=O)c1)Nc1cc(-c2ccc(F)cc2)n[nH]1 [Compound A-491] |  | < 10 µM | > 10 µM
34 | COC[C@H](C)N/C(=N/C(=O)c1ccc(O)cc1)Nc1cc(-c2ccc(F)cc2)n[nH]1 [Compound A-492] | < 10 µM | < 10 µM | 
35 | COC[C@H](C)N/C(=N/C(=O)c1ccc(OC)nc1)Nc1cc(-c2ccc(F)cc2)n[nH]1 [Compound A-493] | < 10 µM | < 10 µM | 
36 | COc1ccc(C(=O)/N=C(\Nc2cc(-c3ccc(F)cc3)n[nH]2)NC(C)(C)C)cn1 [Compound A-494] | < 10 µM | < 10 µM | 
37 | COC[C@H](C)N/C(=N/C(=O)c1ccnc(OC)c1)Nc1cc(-c2ccc(F)cc2)n[nH]1 [Compound A-495] | < 10 µM | < 10 µM | 
38 | COc1cc(C(=O)/N=C(\Nc2cc(-c3ccc(F)cc3)n[nH]2)NC(C)(C)C)ccn1 [Compound A-496] | < 10 µM | < 10 µM | 
39 | COCC(C)NC(=NC(=O)c1ccc(S(C)(=O)=O)cc1)Nc1cc(-c2ccc(F)cc2)n[nH]1 (centres unmarked) [Compound A-497] |  | < 10 µM | < 10 µM
40 | CC(C)(C)N/C(=N/C(=O)c1ccc(S(C)(=O)=O)cc1)Nc1cc(-c2ccc(F)cc2)n[nH]1 [Compound A-498] | < 10 µM | < 10 µM | 
41 | CC(C)(C)N/C(=N/C(=O)c1cccc(S(C)(=O)=O)c1)Nc1cc(-c2ccc(F)cc2)n[nH]1 [Compound A-499] | < 10 µM | < 10 µM | 
42 | COC[C@@H](C)NC(=NC(=O)c1ccc(F)cc1)Nc1cc(-c2ccc(F)cc2)n[nH]1 [Compound A-500] |  | < 10 µM | < 10 µM
43 | O=C(/N=C(\Nc1cc(-c2ccc(F)cc2)n[nH]1)NC1CCC(F)(F)CC1)c1ccc(F)cc1 [Compound A-501] | < 10 µM | < 10 µM | 
44 | N#Cc1cccc(C(=O)/N=C(\Nc2cc(-c3ccc(F)cc3)n[nH]2)NC2CCC(F)(F)CC2)c1 [Compound A-502] | < 10 µM | < 10 µM | 
45 | COCC(C)(C)NC(=NC(=O)c1ccc(F)cc1)Nc1cc(-c2ccc(F)cc2)n[nH]1 [Compound A-505] |  | < 10 µM | < 10 µM
46 | COCCOCC(C)(C)N/C(=N/C(=O)c1cccc(C#N)c1)Nc1cc(-c2ccc(F)cc2)n[nH]1 [Compound A-506] | < 10 µM | < 10 µM | 
47 | CC(C)(C)N/C(=N/C(=O)c1ccc(O)cc1)Nc1cc(-c2ccc(F)cc2)n[nH]1 [Compound A-509] | < 10 µM | < 10 µM | 
48 | N#Cc1cccc(C(=O)/N=C(\Nc2cc(-c3ccc(F)cc3)[nH]n2)N[C@@H]2CCOC2)c1 [Compound A-510] | < 10 µM | < 10 µM | 
49 | O=C(N=C(Nc1cc(-c2ccc(F)cc2)[nH]n1)NC1CCOC1)c1ccc(F)cc1 (centres unmarked) [Compound A-511] | < 10 µM | < 10 µM | 
50 | CC(C)NC(=NC(=O)c1ccc(F)cc1)Nc1cc(-c2ccc(F)cc2)[nH]n1 [Compound A-512] |  | < 10 µM | < 10 µM
51 | CC(C)CN/C(=N/C(=O)c1ccc(F)cc1)Nc1cc(-c2ccc(F)cc2)[nH]n1 [Compound A-513] | < 10 µM | < 10 µM | 
52 | CC(C)(C)CN/C(=N/C(=O)c1ccc(F)cc1)Nc1cc(-c2ccc(F)cc2)[nH]n1 [Compound A-514] | < 10 µM | < 10 µM | 
